From PubChem BioAssay AID330 (DTP/NCI, 2004)
Several values for one entry are separate records, joined by “and”; a condition that tells them apart may be missing. Equal values may be shown once. Inconclusive results and toxic doses are left out.

Tested on: P388 leukemia ip, CD2F1 mice, survival T/C
Assay: NCI In Vivo Anticancer Drug Screen. Data for tumor model P388 Leukemia (intraperitoneal) in CD2F1 (CDF1) mice
Conditions: endpoint: median survival time, higher = longer survival
How it was run: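 Mice carrying the transplanted tumor received test compound or vehicle. Survival was recorded in each group, and the value is the treated-group measurement divided by that of the vehicle-treated control group.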

[1] = dose: 50.0 mg/kg/injection, schedule: Q01DX009 (ip), vehicle: saline
[2] = dose: 100.0 mg/kg/injection, schedule: Q01DX009 (ip), vehicle: saline
[3] = dose: 60.0 mg/kg/injection, schedule: Q01DX005 (ip), vehicle: Klucel (hydroxypropylcellulose) (HPC)
[4] = dose: 120.0 mg/kg/injection, schedule: Q01DX005 (ip), vehicle: Klucel (hydroxypropylcellulose) (HPC)
[5] = dose: 240.0 mg/kg/injection, schedule: Q01DX005 (ip), vehicle: Klucel (hydroxypropylcellulose) (HPC)
[6] = dose: 50.0 mg/kg/injection, schedule: Q01DX005 (ip), vehicle: saline with Tween-80
[7] = dose: 100.0 mg/kg/injection, schedule: Q01DX005 (ip), vehicle: saline with Tween-80
[8] = dose: 200.0 mg/kg/injection, schedule: Q01DX005 (ip), vehicle: saline with Tween-80
[9] = dose: 50.0 mg/kg/injection, schedule: Q01DX005 (ip), vehicle: saline
[10] = dose: 50.0 mg/kg/injection, schedule: Q01DX009 (ip), vehicle: Klucel (hydroxypropylcellulose) (HPC)
[11] = dose: 100.0 mg/kg/injection, schedule: Q01DX009 (ip), vehicle: Klucel (hydroxypropylcellulose) (HPC)
[12] = dose: 200.0 mg/kg/injection, schedule: Q01DX009 (ip), vehicle: Klucel (hydroxypropylcellulose) (HPC)
[13] = dose: 60.0 mg/kg/injection, schedule: Q01DX005 (ip), vehicle: saline with Tween-80
[14] = dose: 120.0 mg/kg/injection, schedule: Q01DX005 (ip), vehicle: saline with Tween-80
[15] = dose: 240.0 mg/kg/injection, schedule: Q01DX005 (ip), vehicle: saline with Tween-80

Structure (SMILES): CCCCCCC(/C=C/c1ccc(Cl)c(Cl)c1)=N\NC(=O)C[n+]1ccccc1
- T/C [1]: 99 % of control
- T/C [2]: 101 % of control
- T/C (dose: 200.0 mg/kg/injection, schedule: Q01DX009 (ip), vehicle: saline): 101 % of control

Structure (SMILES): CCOCc1c(-c2ccccc2)sc2ccccc2c1=O
- T/C [3]: 98 % of control
- T/C [4]: 95 % of control
- T/C [5]: 92 % of control

Structure (SMILES): Oc1cc(O)cc(/C=C/c2ccccc2)c1
- T/C (dose: 50.0 mg/kg/injection, schedule: Q01DX005 (ip), vehicle: water): 107 % of control
- T/C (dose: 100.0 mg/kg/injection, schedule: Q01DX005 (ip), vehicle: water): 101 % of control

Structure (SMILES): O=C1Nc2ccccc2C2CCCCC12 (stereo not given)
- T/C [6]: 107 % of control
- T/C [7]: 102 % of control
- T/C [8]: 98 % of control

Structure (SMILES): CCCCN(CCCC)CCCOC(=O)c1ccc2oc3ccc(C(=O)OCCCN(CCCC)CCCC)cc3c2c1
- T/C (dose: 50.0 mg/kg/injection, schedule: Q01DX009 (ip), vehicle: saline with Tween-80): 96 % of control
- T/C (dose: 100.0 mg/kg/injection, schedule: Q01DX009 (ip), vehicle: saline with Tween-80): 103 % of control

Structure (SMILES): COc1cc2c(OC)cc1CCCC(=O)CCCc1cc(OC)c(cc1OC)CCCC(=O)CCC2
- T/C [6]: 100 % of control
- T/C [7]: 98 % of control
- T/C [8]: 92 % of control

Structure (SMILES): COC(=O)c1ccccc1NC1=NS(=O)(=O)c2ccccc2N1C
- T/C [6]: 87 % of control
- T/C [7]: 86 % of control
- T/C [8]: 87 % of control

Structure (SMILES): O=CN(CC(=O)O)CC(=O)O
- T/C [9]: 100 % of control
- T/C (dose: 100.0 mg/kg/injection, schedule: Q01DX005 (ip), vehicle: saline): 100 % of control
- T/C (dose: 200.0 mg/kg/injection, schedule: Q01DX005 (ip), vehicle: saline): 102 % of control

Structure (SMILES): CCN(CC)c1cc(=O)n2ccccc2n1
- T/C [3]: 96 % of control
- T/C [4]: 100 % of control
- T/C [5]: 103 % of control

Structure (SMILES): CCCCCOC(CN(C)C)C(Cl)(Cl)Cl (stereo not given)
- T/C [10]: 100 % of control
- T/C [11]: 100 % of control
- T/C [12]: 101 % of control

Structure (SMILES): CCN(C)N=Nc1cccnc1
- T/C (dose: 12.5 mg/kg/injection, schedule: Q01DX009 (ip), vehicle: saline): 103 % of control and 92 % of control and 97 % of control
- T/C (dose: 25.0 mg/kg/injection, schedule: Q01DX009 (ip), vehicle: saline): 100 % of control and 102 % of control and 92 % of control
- T/C [1]: 103 % of control and 111 % of control and 91 % of control
- T/C [2]: 107 % of control and 110 % of control

Structure (SMILES): CN(C)c1nc(=O)c2c(o1)CC(C)(C)C2
- T/C (dose: 100.0 mg/kg/injection, schedule: Q04DX003 (ip), vehicle: Klucel (hydroxypropylcellulose) (HPC)): 110 % of control
- T/C (dose: 200.0 mg/kg/injection, schedule: Q04DX003 (ip), vehicle: Klucel (hydroxypropylcellulose) (HPC)): 109 % of control
- T/C (dose: 400.0 mg/kg/injection, schedule: Q04DX003 (ip), vehicle: Klucel (hydroxypropylcellulose) (HPC)): 90 % of control

Structure (SMILES): Cc1ccc(S(=O)(=O)CC(=O)CC(=O)C(N)=O)cc1
- T/C [13]: 109 % of control
- T/C [14]: 108 % of control
- T/C [15]: 104 % of control

Structure (SMILES): N#C/C(=C(/N)N1CCOCC1)N1CCOCC1
- T/C [3]: 100 % of control
- T/C [4]: 95 % of control
- T/C [5]: 98 % of control

Structure (SMILES): O=c1c2ccccc2nc(-c2cccc([N+](=O)[O-])c2)n1O
- T/C [13]: 89 % of control
- T/C [14]: 100 % of control
- T/C [15]: 91 % of control

Structure (SMILES): c1cc2nc(-c3ccc4nc(C5=NCCN5)[nH]c4c3)[nH]c2cc1C1=NCCN1
- T/C (dose: 12.5 mg/kg/injection, schedule: Q01DX005 (ip), vehicle: saline): 90 % of control
- T/C (dose: 25.0 mg/kg/injection, schedule: Q01DX005 (ip), vehicle: saline): 87 % of control and 90 % of control
- T/C [9]: 99 % of control and 91 % of control and 97 % of control

Structure (SMILES): CCCCCCCN1CCS(=O)(=O)CC1
- T/C [10]: 93 % of control
- T/C [11]: 98 % of control
- T/C [12]: 97 % of control
